From patent US20170252278A1, “INHIBITION OF MATURATION OF DENTAL BIOFILM AND CARIOGENIC PROPERTIES” (KONINKLIJKE PHILIPS N.V., priority 2014, published 2017)

What was measured:
Type in all cases: cell-based
[1] = system: in vitro oral plaque biofilms; assay: In vitro oral plaque biofilm formation in the Amsterdam Active Attachment Model, CFU determination; conditions: for in vitro oral plaque biofilm formation, Colony Forming Units: FIG. 1
Protocol: Stimulated saliva, used as inoculum, was collected on ice from ten donors. Saliva was donated 24 h after last brushing. The saliva was diluted 2-fold with 60% sterile glycerol, aliquoted and stored at −80° C. Before use, a pooled sample was prepared by mixing 200 μl of thawed saliva of each donor and vortexing for 30 seconds. In vitro oral plaque biofilms were inoculated 1:50 with pooled saliva.
In vitro oral plaque biofilms were grown in the Amsterdam Active Attachment Model (AAA-model, Exterkate et al. (2010)), assembled with glass coverslips (diameter 12 mm; Menzel, Braunschweig, Germany). The model was inoculated for 8 h with pooled saliva in buffered semi-defined McBain medium (2.5 g/l mucin (Sigma, St Louis, Mo.), 2.0 g/l Bacto peptone (Difco, Detroit, Mich.), 2.0 g/l Trypticase peptone (BBL, Cockeysville, Md.), 1.0 g/l yeast extract (BD Diagnostic Systems, Sparks, Md.), 0.35 g/l NaCl, 0.2 g/l KCl, 0.2 g/l CaCl2, 1 mg/l hemin (Sigma, St. Louis, Mo., USA), and 2 mg/l vitamin K1 (McBain et al. (2005)), with 50 mmol/1 PIPES at pH 7.0), with 0.2% sucrose.
In vitro oral plaque biofilms were grown in the AAA-model for 48-96 h in the presence of the compounds tested. The model was inoculated with saliva and incubated anaerobically at 37° C. for 8 hours to allow microbes to attach to the glass coverslips. After 8 hours of attachment, the inoculation medium was refreshed and in vitro oral plaque biofilms were grown for 16 hours. This refreshment routine was repeated daily until the day of harvesting.
In vitro oral plaque biofilms were harvested by transferring the glass coverslips into 2 ml phosphate buffered saline (PBS). The biofilms were dispersed using a Vibracell VCX130 sonicator with a maximum of 130 Watts and 20 kHz (Sonics & Materials, Newtown, USA). Bio films were sonicated on ice for 1 minute with a pulse rate of 50% and pulses of 1 second. Vibration amplitude was set to 40%.
To estimate the amount of in vitro oral plaque biofilm formation, total anaerobic colony forming units were determined. Briefly, serial dilutions of the dispersed bio films were made and plated on tryptic soy agar blood plates. Plates were subsequently incubated anaerobically for 96 h at 37° C. and colony forming units were determined by counting the number of colonies for each dilution.

[2] = system: in vitro oral plaque biofilms; assay: Microbial composition of biofilms by 16S rDNA sequencing; conditions: for Actinobacillus, share of biofilm composition / Actinomyces, share of biofilm composition / Campylobacter, share of biofilm composition / Fusobacterium, share of biofilm composition / Granulicatella, share of biofilm composition / Haemophilus, share of biofilm composition / Megasphaera, share of biofilm composition / Neisseria, share of biofilm composition / Other taxa, share of biofilm composition / Porphyromonas, share of biofilm composition / Prevotella, share of biofilm composition / Rothia, share of biofilm composition / Solobacterium, share of biofilm composition / Streptococcus, share of biofilm composition / Unclass. Pasteurellaceae, share of biofilm composition / Veillonella, share of biofilm composition: 3-Oxo-N 100 μM, furanones 10 μM
Protocol: DNA was isolated using phenol bead-beating followed by Agowa isolation, following the manufacturers instructions (LGC Genomics, Mag mini kit). Briefly, cells were mechanically disrupted four times at 1200 rpm for two minutes in addition of Tris-saturated Phenol, pH8, 0.1 mm zirconium beads and Mag lysis buffer. The DNA-containing phase was mixed with binding buffer and magnetic beads. DNA concentration was estimated by determining the absorbance at 260 nm using the nanodrop (Isogen, ND-1000).
PCR was performed in a final volume of 25 μl containing 1 μl of each primer ([…]), 1 μl dNTP (10 mM), 2.5 μl 10× DreamTaq Buffer including MgCl2 (Thermo Scientific), 0.2 μl DreamTaq DNA Polymerase (5 u/μ1, Thermo Scientific) and 50 ng of DNA. Initial denaturation was performed at 94° C. for 4 min, followed by 35 cycles of denaturation at 94° C. for 30 s, 54° C. annealing for 1 min, 72° C. for 1 min primer extension and a final extension at 72° C. for 5 min. Product formation was confirmed by electrophoresis of 5 μl on a 1% (w/v) agarose gel (Sphearo Q, Leiden, The Netherlands) stained with ethidium bromide.
These samples were analyzed by 16S rDNA Illumina sequencing at TNO Zeist (Netherlands).
Table 3. Microbial composition of biofilms grown for 48 (Table 3A) or 96 h (Table 3B) in the presence of different QS inhibitors. Composition was determined by 16S rDNA sequencing. The composition of the original inoculum used for all biofilms was also determined. “Unclass.” means: unclassified.

[3] = system: in vitro oral plaque biofilms; assay: Lactic acid production assay of in vitro oral plaque biofilms
Protocol: All compounds tested of Table 1 were obtained from Sigma Aldrich. All compounds of Table 2, except 3-oxo-N(2oxocyclohexyl)dodecanamide, were kindly provided by M. Meijler, University of the Negev, Israel. The compounds were dissolved in DMSO and stored at −20 C. The compounds were continuously present at the indicated concentrations during biofilm growth, but not during further phenotypic analysis, i.e. lactate production.
(§1) To estimate the cariogenic phenotype, lactic acid production of the in vitro oral plaque biofilms was determined prior to harvesting (Exerkate et al 2010). In short, the biofilms on coverslips were placed in a 24-well plate containing 1.5 ml of BPW with 0.2% sucrose. Lactic acid formation was allowed for 3 hr at 37° C. under anaerobic conditions. The total amount of lactic acid produced in this period was analyzed using a colorimetric assay described previously (van Loveren et al. (2000)) and expressed as mM lactic acid, and as μM lactic acid per 1×10^6 CFU.
Biofilms were grown for 48 h in buffered McBain medium supplemented with 0.2% sucrose in the presence of 100 μM of one of the compounds. Medium was refreshed twice every day. […]

[4] = system: in vitro oral plaque biofilms; assay: Lactic acid production of biofilms grown with 3-oxo-N(2-oxocyclohexyl)dodecanamide and C12-HSL (interference test); conditions: all concentrations (25 or 100 μM), with 0, 25 or 100 μM C12-HSL; 48 h growth
Protocol: as §1
In this experiment the effect of the quorum sensing molecule C12-HSL on the lactate reducing activity of 3-Oxo-N-(2-oxocyclohexyl)dodecanamide was tested. Biofilms were grown for 48 h in buffered McBain medium supplemented with 0.2% sucrose, in the presence of 0, or 25 or 100 μM 3-oxo-N(2-oxocyclohexyl)dodecanamide and 0, or 25 or 100 μM of C12-HSL. Medium was refreshed twice every day. After 48 h of growth, biofilms were transferred to BPW with 0.2% sucrose, and biofilms were allowed to produce lactate for 3 h.

CCCCCCCCCC(=O)CC(=O)NC1CCCCC1=O (stereo not shown) [3-Oxo-N, 3-oxo-N-(2-oxocyclohexyl)dodecanamide] was tested, and the “inhibitory concentration (concentration that completely inhibits oral plaque biofilm growth)” value [1] was “above 800 μM”, the “in vitro oral plaque biofilm formation, Colony Forming Units” value ([1]; 100 μM, control 1.5×10^9 CFU) was “up to 6.6×10^8 CFU” and the “biofilm production (visible amount of biofilm)” value ([1]; Example 2, 100 μM, 48 h) was “normal amounts of biofilm”. The “in vitro oral plaque biofilm formation, Colony Forming Units” value ([1]; all the other concentrations (below 100 μM), same as control) was 1.5×10^9 CFU, the “effect on in vitro oral plaque biofilm formation” value ([1]; highest concentration tested (100 μM)) was “slightly affected” and the “Streptococcus reduced versus control” value ([2]; 100 μM, 48 h) was “more than 30%”. For the same compound, the “Veillonella more abundant than in control” value ([2]; 100 μM, 48 h) was 10%, the “change in Actinobacillus species versus control” value ([2]; 100 μM, 48 h) was “increase” and the “Actinobacillus, share of biofilm composition” value ([2]; 48 h) was 27.6%. The “Actinomyces, share of biofilm composition” value ([2]; 48 h) was 0.0%, the “Campylobacter, share of biofilm composition” value ([2]; 48 h) was 1.1% and the “Fusobacterium, share of biofilm composition” value ([2]; 48 h) was 0.0%. For the same compound, the “Granulicatella, share of biofilm composition” value ([2]; 48 h) was 0.0%, the “Haemophilus, share of biofilm composition” value ([2]; 48 h) was 0.2% and the “Megasphaera, share of biofilm composition” value ([2]; 48 h) was 0.0%. For the same compound, the “Neisseria, share of biofilm composition” value ([2]; 48 h) was 0.0%, the “Other taxa, share of biofilm composition” value ([2]; 48 h) was 0.1% and the “Porphyromonas, share of biofilm composition” value ([2]; 48 h) was 0.0%. For the same compound, the “Prevotella, share of biofilm composition” value ([2]; 48 h) was 0.0%, the “Rothia, share of biofilm composition” value ([2]; 48 h) was 0.0% and the “Solobacterium, share of biofilm composition” value ([2]; 48 h) was 0.0%. For the same compound, the “Streptococcus, share of biofilm composition” value ([2]; 48 h) was 34.3%, the “Unclass. Pasteurellaceae, share of biofilm composition” value ([2]; 48 h) was 0.6% and the “Veillonella, share of biofilm composition” value ([2]; 48 h) was 36.0%. The “Actinobacillus, share of biofilm composition” value ([2]; 96 h) was 12.0%, the “Actinomyces, share of biofilm composition” value ([2]; 96 h) was 0.0% and the “Campylobacter, share of biofilm composition” value ([2]; 96 h) was 7.2%. For the same compound, the “Fusobacterium, share of biofilm composition” value ([2]; 96 h) was 0.0%, the “Granulicatella, share of biofilm composition” value ([2]; 96 h) was 0.0% and the “Haemophilus, share of biofilm composition” value ([2]; 96 h) was 0.1%. The “Megasphaera, share of biofilm composition” value ([2]; 96 h) was 0.0%, the “Neisseria, share of biofilm composition” value ([2]; 96 h) was 0.0% and the “Other taxa, share of biofilm composition” value ([2]; 96 h) was 0.3%. For the same compound, the “Porphyromonas, share of biofilm composition” value ([2]; 96 h) was 0.0%, the “Prevotella, share of biofilm composition” value ([2]; 96 h) was 0.0% and the “Rothia, share of biofilm composition” value ([2]; 96 h) was 0.0%. For the same compound, the “Solobacterium, share of biofilm composition” value ([2]; 96 h) was 0.0%, the “Streptococcus, share of biofilm composition” value ([2]; 96 h) was 28.7% and the “Unclass. Pasteurellaceae, share of biofilm composition” value ([2]; 96 h) was 0.0%. The “Veillonella, share of biofilm composition” value ([2]; 96 h) was 51.7%, the “lactate production (FIG. 4A)” value ([3]; 10 μM) was “significantly reduces” and the “lactate production (FIG. 4A)” value ([3]; 100 μM) was “almost completely blocked”. For the same compound, the “lactate production corrected for CFU (FIG. 4B)” value ([3]; 100 μM or 10 μM) was “still lower”, the “total lactic acid production per biofilm (FIG. 2)” value ([3]; 100 μM, biofilms grown 48 h, 3 h in BPW with 0.2% sucrose) was “reduced lactic acid production” and the “lactate production after 96 hours of growth” value ([3]; 96 hours of growth) was “the reducing effect was still present”. The “total lactic acid production per biofilm vs control (FIG. 3)” value [4] was “statistical significant difference”.
